Laboratory results taken from PMC9173640, “PI Kinase-EhGEF2-EhRho5 axis contributes to LPA stimulated macropinocytosis in Entamoeba histolytica” (PLoS Pathogens, 2022).

Biological target: T1, EhRho5 (His-EhRho5; EhRacD) (Entamoeba histolytica, UniProt Q24817)
T1 construct: gene RACD; His-tagged (pET28a+), expressed in E. coli BL21(DE3), PCR-amplified full-length gene
Test: nucleotide loading, GST-RBD pulldown
Settings: loaded with 10 mM EDTA; indirect read-out by Rhotekin RBD binding

T1 sequence (C4LV55 entry or part of it): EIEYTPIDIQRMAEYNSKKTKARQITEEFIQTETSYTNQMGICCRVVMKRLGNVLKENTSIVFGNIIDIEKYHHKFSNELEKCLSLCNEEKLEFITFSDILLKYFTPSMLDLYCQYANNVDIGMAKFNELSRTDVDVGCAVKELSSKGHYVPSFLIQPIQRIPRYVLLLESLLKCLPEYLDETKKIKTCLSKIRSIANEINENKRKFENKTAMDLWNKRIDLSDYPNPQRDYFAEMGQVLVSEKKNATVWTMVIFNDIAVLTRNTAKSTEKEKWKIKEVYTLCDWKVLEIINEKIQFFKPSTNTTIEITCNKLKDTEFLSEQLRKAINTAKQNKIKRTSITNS
T1 sequence (Q24817 whole entry): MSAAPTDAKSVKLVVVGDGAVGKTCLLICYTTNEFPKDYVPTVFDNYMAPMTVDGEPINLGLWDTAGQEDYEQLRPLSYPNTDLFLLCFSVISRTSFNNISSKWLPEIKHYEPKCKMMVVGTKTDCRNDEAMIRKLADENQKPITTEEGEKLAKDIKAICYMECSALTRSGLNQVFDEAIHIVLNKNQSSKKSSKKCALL

Compound: Nc1nc2c(ncn2[C@@H]2O[C@H](COP(=O)(O)OP(=O)(O)NP(=O)(O)O)[C@@H](O)[C@H]2O)c(=O)[nH]1 [GMPPNP]
- nucleotide loading, GST-RBD pulldown: nucleotide bound to His-EhRho5 was exchanged with excess of GMPPNP, a nonhydrolyzable GTP analogue

Compound: Nc1nc2c(ncn2[C@@H]2O[C@H](COP(=O)(O)OP(=O)(O)O)[C@@H](O)[C@H]2O)c(=O)[nH]1 [GDP]
- nucleotide loading, GST-RBD pulldown: GDP bound inactive EhRho5 from the GMPPNP (GTP analog) bound EhRho5
